Assay results taken from patent publication US10898498B2, “Slow release oxysterols and methods of use” (Warsaw Orthopedic, Inc., priority 2015, dated 2021).
“Also recorded” adds a separate entry of the source.

What was measured:
[1] = tested on: multipotent mesenchymal cells such as M2-10B4 (M2) marrow stromal cells and C3H10T1/2 embryonic fibroblasts; settings: M2-10B4 marrow stromal cells and C3H10T1/2 embryonic fibroblasts; cited from earlier work
[2] = tested on: rat two-level spine model (posterolateral space, L3-L5); test: Rat two-level posterolateral spine fusion model, implants placed bilaterally; radiographs and manual palpation; type: in vivo; settings: for bone growth / bridging bone on radiographs: 4-week and 8-week timepoints; for spinal fusion by manual palpation evaluation of the spine segments: 8 weeks; for fusion observed (share of rat spines fused, manual palpation): matrix of Oxy133, collagen and ceramic wetted with sterile water, bilateral, 8-week sacrifice, 5/5 spines
Description: FIG. 6 illustrates uses of a formulation of malleable implants having 20 mg of Oxy133 on each side of the implant, in accordance with the malleable implants described herein. […] A dry composition of a matrix containing Oxy133, collagen and ceramic as described herein was prepared and wetted with sterile water to be implanted in rat spines as shown in FIG. 6. The wetted matrix was cut in half with a razor blade to yield two halves. The two implants were molded into cylindrical shapes prior to insertion and were positioned bilaterally in the posterolateral space of each test subject. Each implant contained 20 mg Oxy133. Radiographs were taken roughly 10 minutes after the procedure, 4 weeks after the procedure, and 8 weeks after the procedure. […] Fusion was tested at 8-week sacrifice by manual palpation. […] A dry composition of a matrix containing Oxy133, collagen and ceramic as described herein was prepared and wetted with sterile water to be implanted in rat spines as shown in FIG. 6. The wetted matrix was cut in half with a razor blade to yield two halves. The two implants were molded into cylindrical shapes prior to insertion and were positioned bilaterally in the posterolateral space of each test subject. Each implant contained 125 mg Oxy133. Radiographs were taken roughly 10 minutes after the procedure, 4 weeks after the procedure, and 8 weeks after the procedure. […] Fusion was tested at 8-week sacrifice by manual palpation.

CC(C)CCC[C@](C)(O)[C@H]1CC[C@H]2[C@@H]3CC=C4C[C@@H](O)CC[C@]4(C)[C@H]3CC[C@@]21C [20(S)-hydroxycholesterol]
osteogenic differentiation [1]: induce osteogenic differentiation

CC(C)CC[C@@H](O)[C@@H](C)[C@H]1CC[C@H]2[C@@H]3CC=C4C[C@@H](O)CC[C@]4(C)[C@H]3CC[C@]12C [22(R)-hydroxycholesterol]
osteogenic differentiation [1]: induce osteogenic differentiation

CC(C)CC[C@H](O)[C@@H](C)[C@H]1CC[C@H]2[C@@H]3CC=C4C[C@@H](O)CC[C@]4(C)[C@H]3CC[C@]12C [22(S)-hydroxycholesterol]
osteogenic differentiation [1]: induce osteogenic differentiation

CCCCCC[C@](C)(O)[C@H]1CC[C@H]2[C@@H]3C[C@H](O)[C@H]4C[C@@H](O)CC[C@]4(C)[C@H]3CC[C@@]21C [Oxy133, (3S,5S,6S,8R,9S,10R,13S,14S,17S)-17-((S)-2-hydroxyoctan-2-yl)-10,13-dimethylhexadecahydro-1H-cyclopenta[a]phenanthrene-3,6-diol]
bone growth / bridging bone on radiographs ([2]; each implant 20 mg Oxy133): Bone growth in rat test subjects can be seen; also recorded: promoted bridging bone across the transverse processes of L3-L5 | spinal fusion by manual palpation evaluation of the spine segments ([2]; each implant 20 mg Oxy133): yielded spinal fusion; also recorded: limited flexibility | bone growth / bridging bone on radiographs ([2]; each implant 125 mg Oxy133): Bone growth in rat test subjects can be seen; also recorded: promoted bridging bone across the transverse processes of L3-L5 | spinal fusion by manual palpation evaluation of the spine segments ([2]; each implant 125 mg Oxy133): yielded spinal fusion; also recorded: limited flexibility | fusion observed (share of rat spines fused, manual palpation) ([2]; each implant 20 mg Oxy133): 100% | fusion observed (share of rat spines fused, manual palpation) ([2]; each implant 125 mg Oxy133): 100%
